Data published in US12235275B2, “Fluorescent substrates for poly(ADP-ribosyl) hydrolases” (The Board of Trustees of the University of Illinois, priority 2018, dated 2025).

Experiments:
[1] = molecular target: T1, H. sapiens full length ARH3 (Homo sapiens, UniProt Q9NX46); assay: In vitro enzyme kinetics of substrate hydrolysis
T1 sequence (Q9NX46 1-363): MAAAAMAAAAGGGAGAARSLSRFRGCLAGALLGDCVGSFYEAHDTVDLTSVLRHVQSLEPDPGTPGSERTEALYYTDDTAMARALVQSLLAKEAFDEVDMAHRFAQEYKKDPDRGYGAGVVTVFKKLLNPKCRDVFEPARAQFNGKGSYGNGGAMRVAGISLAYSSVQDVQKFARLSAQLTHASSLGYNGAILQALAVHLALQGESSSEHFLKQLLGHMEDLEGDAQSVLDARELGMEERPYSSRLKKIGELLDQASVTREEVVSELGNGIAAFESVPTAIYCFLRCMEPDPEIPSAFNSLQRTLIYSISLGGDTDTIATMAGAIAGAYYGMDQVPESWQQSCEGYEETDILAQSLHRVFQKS

T. thermophila PARG = molecular target: T2, T. thermophila PARG (Tetrahymena thermophila, UniProt I6L8L7); format: biochemical; conditions: ttPARG
T2 construct: made in house; host or cells: Rosetta2 (DE3) E. coli
T2 sequence (I6L8L7 1-457): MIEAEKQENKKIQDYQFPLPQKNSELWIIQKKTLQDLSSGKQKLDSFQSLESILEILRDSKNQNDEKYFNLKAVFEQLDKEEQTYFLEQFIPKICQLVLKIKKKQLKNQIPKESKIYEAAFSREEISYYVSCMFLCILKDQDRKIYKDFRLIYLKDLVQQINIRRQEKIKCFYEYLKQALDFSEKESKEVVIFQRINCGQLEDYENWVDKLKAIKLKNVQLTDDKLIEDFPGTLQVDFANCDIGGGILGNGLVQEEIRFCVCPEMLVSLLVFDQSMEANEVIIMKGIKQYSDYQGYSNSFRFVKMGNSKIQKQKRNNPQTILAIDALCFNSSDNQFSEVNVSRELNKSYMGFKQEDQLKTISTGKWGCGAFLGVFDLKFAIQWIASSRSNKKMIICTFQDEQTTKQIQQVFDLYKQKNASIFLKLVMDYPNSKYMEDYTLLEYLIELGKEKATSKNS

[2] = molecular target: T3, H. sapiens full length PARG (Homo sapiens, UniProt Q86W56); assay: In vitro enzyme kinetics of substrate hydrolysis; format: biochemical; conditions: hPARG
T3 construct: H. sapiens full length PARG; trigger factor (TF) fusion of the pColdTF vector; made in house; host or cells: Rosetta2 (DE3) E. coli
T3 sequence (Q86W56 whole entry, the tested form may be a part): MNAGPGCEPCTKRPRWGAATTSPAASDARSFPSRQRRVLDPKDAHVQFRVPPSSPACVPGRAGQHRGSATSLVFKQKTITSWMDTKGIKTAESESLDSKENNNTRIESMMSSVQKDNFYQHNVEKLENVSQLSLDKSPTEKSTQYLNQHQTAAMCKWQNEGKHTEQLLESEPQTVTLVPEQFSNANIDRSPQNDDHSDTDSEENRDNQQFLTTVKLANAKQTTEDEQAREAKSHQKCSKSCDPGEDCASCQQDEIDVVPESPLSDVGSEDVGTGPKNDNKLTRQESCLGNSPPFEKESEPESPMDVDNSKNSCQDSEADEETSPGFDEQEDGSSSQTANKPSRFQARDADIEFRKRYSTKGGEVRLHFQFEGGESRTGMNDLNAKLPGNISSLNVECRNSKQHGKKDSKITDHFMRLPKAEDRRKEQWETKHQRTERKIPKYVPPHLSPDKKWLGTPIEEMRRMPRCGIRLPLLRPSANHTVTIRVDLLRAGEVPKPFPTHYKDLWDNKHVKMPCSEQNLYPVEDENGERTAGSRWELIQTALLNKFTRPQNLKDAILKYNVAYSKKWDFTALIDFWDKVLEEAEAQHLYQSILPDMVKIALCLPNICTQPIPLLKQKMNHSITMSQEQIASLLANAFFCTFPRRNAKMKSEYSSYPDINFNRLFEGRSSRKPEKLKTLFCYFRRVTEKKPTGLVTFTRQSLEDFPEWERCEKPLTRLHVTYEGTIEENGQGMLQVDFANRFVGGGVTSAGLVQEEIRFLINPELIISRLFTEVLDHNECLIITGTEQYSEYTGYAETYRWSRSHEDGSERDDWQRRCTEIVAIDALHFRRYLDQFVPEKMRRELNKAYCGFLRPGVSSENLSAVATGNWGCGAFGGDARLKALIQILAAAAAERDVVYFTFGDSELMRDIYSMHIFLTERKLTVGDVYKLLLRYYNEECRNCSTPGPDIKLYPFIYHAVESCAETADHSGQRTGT

[3] = leaving groups pNP and TFMU; cited from earlier work
ARH3 [4] = assay: Substrate hydrolysis in lysate of ARH3 knockout U2OS cells; format: biochemical; conditions: U2OS cell lysate, 200 μM substrate
Procedure: (§1) The ability of TFMU-IDPr to selectively report on ARH3 activity within the cellular milieu would be an important application of these probes. […] First, the hydrolysis of TFMU-IDPr was evaluated in cell lysate from a ARH3 knockout isogenic cell line pair derived from U2OS cells. […] Second, substrate processing was evaluated in the presence of the selective PARG inhibitor PDD00017273. […] Taken together, these experiments indicate that TFMU-IDPr is selectively cleaved by ARH3 in cell lysate, and TFMU-ADPr is cleaved only by ARH3 and PARG.
(§2) Cells were cultured in T75 flasks in appropriate medium. Cells were trypsinized, and scrapped (if necessary), and counted. 1×10^6 cells were harvested and washed with cold PBS 2×. Cell pellet was lysed by addition of activity lysis buffer (150 μL) and incubated on ice for 30 min. Lysate was clarified by centrifugation at 14,300×g at 4° C. for 10 min. Supernatant was transferred to chilled, empty 500 μL tube. Total protein content of lysate was evaluated by BCA assay. ARH3 expression level was determined by western blotting analysis. 5 μL lysate was added to well of 384-well black plate. 45 μL TFMU-IDPr (200 μM final) in reaction buffer was added to well. Reaction progress was monitored by fluorescent plate reader (ex 385 nm, cutoff 495, em 502 nm, 6 reads/well, high gain).

PARG [5] = molecular target: T4, PARG (Homo sapiens, UniProt Q86W56); assay: In vitro inhibition of PARG; format: biochemical; design: H. sapiens full length PARG; trigger factor (TF) fusion of the pColdTF vector; made in house; host or cells: Rosetta2 (DE3) E. coli; conditions: dose-response, FIG. 4C
T4 sequence (Q86W56 whole entry, the tested form may be a part): as above

ARH3 [6] = assay: Cell lysate ARH3 activity assay (survey of cell lines, TFMU-IDPr hydrolysis); format: biochemical; conditions: MEF cell lysate, 200 μM TFMU-IDPr
Procedure: as §2, with “ARH3 expression level was determined by western blotting analysis. 5 μL lysate was added to well of 384-well black plate. 45 μL TFMU-IDPr (200 μM final) in reaction buffer was added to well.” left out

PARG [7] = molecular target: T4, PARG; assay: Substrate hydrolysis in U2OS cell lysate in presence of PARG inhibitor PDD00017273; format: biochemical; design: endogenous in cells; host or cells: U2OS (parental and ARH3 knockout) lysate
Procedure: as §1, §2

ARH3 [8] = molecular target: T5, ARH3 (Homo sapiens, UniProt Q9NX46); assay: Cell lysate ARH3 activity assay (survey of cell lines, TFMU-IDPr hydrolysis); format: biochemical; design: endogenous in cells; conditions: 200 μM TFMU-IDPr
T5 sequence (Q9NX46 1-363): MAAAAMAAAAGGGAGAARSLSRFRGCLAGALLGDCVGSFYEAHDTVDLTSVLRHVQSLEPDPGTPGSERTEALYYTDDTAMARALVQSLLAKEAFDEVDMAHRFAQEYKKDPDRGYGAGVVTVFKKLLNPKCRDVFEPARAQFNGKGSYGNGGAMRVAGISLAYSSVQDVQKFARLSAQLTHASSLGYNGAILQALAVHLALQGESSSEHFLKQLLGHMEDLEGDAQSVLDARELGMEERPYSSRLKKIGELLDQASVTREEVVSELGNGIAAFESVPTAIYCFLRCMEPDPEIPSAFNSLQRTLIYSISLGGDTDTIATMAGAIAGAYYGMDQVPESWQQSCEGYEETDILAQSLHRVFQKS
Procedure: as §2, with “ARH3 expression level was determined by western blotting analysis. 5 μL lysate was added to well of 384-well black plate. 45 μL TFMU-IDPr (200 μM final) in reaction buffer was added to well.” left out

ARH3 [9] = molecular target: T5, ARH3; assay: In vitro inhibition of purified ARH3; format: biochemical; design: H. sapiens full length ARH3; His6 (N); made in house; host or cells: Rosetta2 (DE3) E. coli; conditions: mixture of anomers
[10] = substrate: O=c1[nH]cnc2c1ncn2[C@@H]1OC(COP(=O)(O)OP(=O)(O)OCC2OC(Oc3ccc([N+](=O)[O-])cc3)[C@H](O)[C@@H]2O)[C@@H](O)[C@H]1O; assay: purified protein, by the assay type; conditions: other: hARH3
[11] = substrate: O=c1cc(C(F)(F)F)c2ccc(O[C@H]3O[C@H](COP(=O)(O)OP(=O)(O)OC[C@H]4O[C@@H](n5cnc6c(=O)[nH]cnc65)[C@H](O)[C@@H]4O)[C@@H](O)[C@H]3O)cc2o1; assay: purified protein, by the assay type; conditions: other: hARH3

Molecule: Nc1ncnc2c1ncn2[C@@H]1O[C@H](COP(=O)(O)OP(=O)(O)OC[C@H]2O[C@H](Oc3ccc4c(C(F)(F)F)cc(=O)oc4c3)[C@H](O)[C@@H]2O)[C@@H](O)[C@H]1O [TFMU-ADPr]
- Vmax ([1]; hARH3): 1.61 ± 0.02 µmol/min/mg
- Vmax (T. thermophila PARG): 28.6 ± 0.6 µmol/min/mg
- Vmax [2]: 0.84 ± 0.05 µmol/min/mg
- pKa of the leaving group [3]: 7.26
- effect of ARH3 knockout on substrate hydrolysis (ARH3 [4]): only partially decreased

Molecule: Nc1ncnc2c1ncn2[C@@H]1O[C@H](COP(=O)(O)OP(=O)(O)OC[C@H]2NC[C@H](O)[C@@H]2O)[C@@H](O)[C@H]1O [ADP-HPD]
- inhibition of PARG (PARG [5]): inhibits both PARG and ARH3

Molecule: O=c1cc(C(F)(F)F)c2ccc(O[C@H]3O[C@H](COP(=O)(O)OP(=O)(O)OC[C@H]4O[C@@H](n5cnc6c(=O)[nH]cnc65)[C@H](O)[C@@H]4O)[C@@H](O)[C@H]3O)cc2o1 [TFMU-IDPr]
- selectivity for processing by ARH3 over PARG ([1]; human ARH3 over human PARG, FIG. 2C): confirmed
- Km (T. thermophila PARG): > 1500 µM
- Km [2]: > 1500 µM
- ARH3 Activity (ARH3 [6]): 153 ± 38 milli-units/min/μg
- substrate hydrolysis in presence of PARG inhibitor PDD00017273 (PARG [7]; U2OS cell lysate, 200 μM TFMU-IDPr): unaffected
- effect of ARH3 knockout on substrate hydrolysis (ARH3 [4]): near complete loss
- ARH3 Activity (ARH3 [8]; A549 cell lysate): 67 ± 23 milli-units/min/μg
- ARH3 Activity (ARH3 [8]; D54 cell lysate): 147 ± 34 milli-units/min/μg
- ARH3 Activity (ARH3 [8]; Daudi cell lysate): 27 ± 35 milli-units/min/μg
- ARH3 Activity (ARH3 [8]; HCC38 cell lysate): 100 ± 19 milli-units/min/μg
- ARH3 Activity (ARH3 [8]; HCC1937 cell lysate): 76 ± 4 milli-units/min/μg
- ARH3 Activity (ARH3 [8]; HCT-116 cell lysate): 173 ± 17 milli-units/min/μg
- ARH3 Activity (ARH3 [8]; HEK cell lysate): 192 ± 20 milli-units/min/μg
- ARH3 Activity (ARH3 [8]; HFF-1 cell lysate): 105 ± 20 milli-units/min/μg
- ARH3 Activity (ARH3 [8]; HeLa cell lysate): 159 ± 18 milli-units/min/μg
- ARH3 Activity (ARH3 [8]; HepG2 cell lysate): 215 ± 19 milli-units/min/μg
- ARH3 Activity (ARH3 [8]; Hs578t cell lysate): 170 ± 34 milli-units/min/μg
- ARH3 Activity (ARH3 [8]; Jurkat cell lysate): 36 ± 7 milli-units/min/μg
- ARH3 Activity (ARH3 [8]; MCF 7 cell lysate): 92 ± 40 milli-units/min/μg
- ARH3 Activity (ARH3 [8]; MCF10A cell lysate (grown with cholera toxin)): −5 ± 12 milli-units/min/μg
- ARH3 Activity (ARH3 [8]; MIA PaCa-2 cell lysate): 157 ± 25 milli-units/min/μg
- ARH3 Activity (ARH3 [8]; SK-MEL-5 cell lysate): 87 ± 13 milli-units/min/μg
- ARH3 Activity (ARH3 [8]; T98G cell lysate): 139 ± 7 milli-units/min/μg
- ARH3 Activity (ARH3 [8]; U87 cell lysate): 290 ± 52 milli-units/min/μg
- ARH3 Activity (ARH3 [8]; U937 cell lysate): 137 ± 34 milli-units/min/μg

Molecule: N=C(NCCCC(N)C(=O)O)NC1OC(COP(=O)(O)OP(=O)(O)OCC2OC(n3cnc4c(N)ncnc43)C(O)C2O)C(O)C1O (stereo not shown) [ADPr-Arg, ADP-ribosyl arginine]
- Ki (ARH3 [9]): 18 ± 2 nM
- inhibition of PARG (PARG [5]): markedly reduced activity against PARG

Molecule: PDD00017273 [reference compound]
- inhibition of TFMU-ADPr hydrolysis (PARG [7]; ARH3−/− U2OS cell lysate, 200 μM TFMU-ADPr): completely abolished

Molecule: O=c1[nH]cnc2c1ncn2[C@@H]1OC(COP(=O)(O)OP(=O)(O)OCC2OC(Oc3ccc([N+](=O)[O-])cc3)[C@H](O)[C@@H]2O)[C@@H](O)[C@H]1O (stereo partly shown) [pNP-IDPr]
- Km (T. thermophila PARG): > 1500 µM

Molecule: Nc1ncnc2c1ncn2[C@@H]1O[C@H](COP(=O)(O)OP(=O)(O)OC[C@H]2O[C@@H](Oc3ccc([N+](=O)[O-])cc3)[C@H](O)[C@@H]2O)[C@@H](O)[C@H]1O [pNP-ADPr]
- Km ([1]; hARH3): 3.2 ± 0.6 µM
- Vmax ([1]; hARH3): 1.7 ± 0.1 µmol/min/mg
- stereoselectivity of hydrolysis, α versus β anomer ([1]; hARH3, FIG. 5D): selectively hydrolyzed the α anomer of pNP-ADPr over the β anomer
- Km (T. thermophila PARG): 210 ± 10 µM
- Vmax (T. thermophila PARG): 16.9 ± 0.5 µmol/min/mg
- stereoselectivity of hydrolysis, α versus β anomer (T. thermophila PARG; FIG. 5C): selectively hydrolyzed the α anomer of pNP-ADPr over the β anomer
- pKa of the leaving group [3]: 7.15

B1: H. sapiens full length ARH3 (Homo sapiens) (protein)
chain: MAAAAMAAAAGGGAGAARSLSRFRGCLAGALLGDCVGSFYEAHDTVDLTSVLRHVQSLEPDPGTPGSERTEALYYTDDTAMARALVQSLLAKEAFDEVDMAHRFAQEYKKDPDRGYGAGVVTVFKKLLNPKCRDVFEPARAQFNGKGSYGNGGAMRVAGISLAYSSVQDVQKFARLSAQLTHASSLGYNGAILQALAVHLALQGESSSEHFLKQLLGHMEDLEGDAQSVLDARELGMEERPYSSRLKKIGELLDQASVTREEVVSELGNGIAAFESVPTAIYCFLRCMEPDPEIPSAFNSLQRTLIYSISLGGDTDTIATMAGAIAGAYYGMDQVPESWQQSCEGYEETDILAQSLHRVFQKS
- Km [10]: 410 ± 20 µM
- Vmax [10]: 5.2 µmol/min/mg
- Km [11]: 312 ± 30 µM
- Vmax [11]: 1.79 µmol/min/mg
